This note sets out measurements from US20170342061A1 (CHONGQING PHARMACEUTICAL INDUSTRIAL RESEARCH INSTITUTE CO., …, priority 2014, published 2017).

The nature of the series: Stability testing of crystal form I of Canagliflozin. The format is physicochemical.
Where [1] appears, read: placed at 25 ± 2° C. and a humidity of RH92.5% for 30 days.
Where [2] appears, read: placed at 40 ± 2° C. for 30 days.
Where [3] appears, read: placed at 60 ± 2° C. for 30 days.

On to `Cc1ccc([C@@H]2O[C@H](CO)[C@@H](O)[C@H](O)[C@H]2O)cc1Cc1ccc(-c2ccc(F)cc2)s1` [crystal form I of Canagliflozin, 1-(β-D-glucopyranosyl)-4-methyl-3-[5-(4-fluorophenyl)-2-thienylmethyl]benzene], for which the “HPLC change before placed” value runs as follows: (before being placed at 25 ± 2° C. and a humidity of RH92.5% for 30 days) 99.89%; (before being placed at 40 ± 2° C. for 30 days) 99.89%; (before being placed at 60 ± 2° C. for 30 days) 99.89%. For the same compound, the stability entry (overall conclusion from the stability table) is recorded as “good stability”. Besides, the “HPLC change after placed” value worked out at 99.89% under setting [1], 99.88% under setting [2] and 99.87% under setting [3]. Moreover, the crystal form result was “Crystal form I” under setting [1], “Crystal form I” under setting [2] and “Crystal form I” under setting [3]. The “whether the appearance changed” value is reported as “No change” under setting [1], “No change” under setting [2] and “No change” under setting [3]. The “whether there being apparent moisture absorption” value reads like this: under setting [1], “No apparent”; under setting [2], “No apparent”; under setting [3], “No apparent”.
